Results taken from ChEMBL document CHEMBL1140355, “New HIV-1 replication inhibitors of the styryquinoline class bearing aroyl/acyl groups at the C-7 position: synthesis and biological activity” (Bioorg Med Chem Lett, 2005).

Columns and labels:
[1] = Toxicity towards CEM cells determined by standard MTT assay, expressed as concentration required for the survival of 50% cells; format: cell-based; details: human, CEM cells (CCRF-CEM cell line); read-out: TC50 (the source's name)
[2] = system: Human immunodeficiency virus 1; test: Antiviral activity against human immunodeficiency virus type 1 by using MAGI assay; format: functional, organism-based; details: Human immunodeficiency virus 1, MAGI
[3] = system: Human immunodeficiency virus 1; test: Antiviral activity against human immunodeficiency virus type 1 by using MAGI assay; NR = not reached; format: functional, organism-based

Row | Compound | CC50 [1] [µM] | IC50 [2] [µM] | IC50 [3]
1 | O=C(CCc1ccccc1)c1ccc2ccc(/C=C/c3ccc(O)c(O)c3)nc2c1O | 7 | 2 | –
2 | O=C(c1ccccc1)c1ccc2ccc(/C=C/c3ccc(O)c(O)c3)nc2c1O | 3 | – | Not reached
3 | O=C(c1ccccc1O)c1ccc2ccc(/C=C/c3ccc(O)c(O)c3)nc2c1O | 1 | – | Not reached
4 | O=C(c1cccc([N+](=O)[O-])c1)c1ccc2ccc(/C=C/c3ccc(O)c(O)c3)nc2c1O | 1.5 | 0.5 | –
5 | O=C(c1ccncc1)c1ccc2ccc(/C=C/c3ccc(O)c(O)c3)nc2c1O | 4 | – | Not reached
6 | O=C(c1ccc2ccc(/C=C/c3ccc(O)c(O)c3)nc2c1O)c1cccc2ccccc12 | 1 | – | Not reached
7 | O=C(c1ccc([N+](=O)[O-])cc1)c1ccc2ccc(/C=C/c3ccc(O)c(O)c3)nc2c1O | 60 | 2 | –
8 | O=C(O)c1ccc2ccc(/C=C/c3ccc(O)c(O)c3)nc2c1O | > 100 | – | –
9 | Cc1cc(C(=O)c2ccc3ccc(/C=C/c4ccc(O)c(O)c4)nc3c2O)ccc1[N+](=O)[O-] | 90 | 60 | –
10 | O=C(c1ccccn1)c1ccc2ccc(/C=C/c3ccc(O)c(O)c3)nc2c1O | 15 | – | Not reached
11 | O=C(O)c1cccc(C(=O)c2ccc3ccc(/C=C/c4ccc(O)c(O)c4)nc3c2O)c1 | > 100 | 63 | –
12 | O=C(O)c1ccc(C(=O)c2ccc3ccc(/C=C/c4ccc(O)c(O)c4)nc3c2O)cc1 | 80 | 40 | –
13 | CCCCCCCCC(=O)c1ccc2ccc(/C=C/c3ccc(O)c(O)c3)nc2c1O | 10 | 5 | –
14 | O=C(O)c1ccccc1C(=O)c1ccc2ccc(/C=C/c3ccc(O)c(O)c3)nc2c1O | > 100 | 35 | –
15 | O=C(c1ccc(O)cc1)c1ccc2ccc(/C=C/c3ccc(O)c(O)c3)nc2c1O | 87 | 6 | –
16 | O=C(c1cccnc1)c1ccc2ccc(/C=C/c3ccc(O)c(O)c3)nc2c1O | > 100 | 2 | –
17 | O=C(c1ccc(F)c(F)c1)c1ccc2ccc(/C=C/c3ccc(O)c(O)c3)nc2c1O | 63 | 4 | –
18 | O=C(c1ccccc1[N+](=O)[O-])c1ccc2ccc(/C=C/c3ccc(O)c(O)c3)nc2c1O | 70 | 4 | –
